IC50 data for two molecules are collected here from ChEMBL document CHEMBL1145719, “Rigidone, a sesquiterpene o-quinone from the gorgonian Pseudopterogorgia rigida” (J Nat Prod, 1997).

The target in this test is T1, Macrophage scavenger receptor types I and II (Homo sapiens, UniProt P21757).
T1 sequence (P21757 whole entry): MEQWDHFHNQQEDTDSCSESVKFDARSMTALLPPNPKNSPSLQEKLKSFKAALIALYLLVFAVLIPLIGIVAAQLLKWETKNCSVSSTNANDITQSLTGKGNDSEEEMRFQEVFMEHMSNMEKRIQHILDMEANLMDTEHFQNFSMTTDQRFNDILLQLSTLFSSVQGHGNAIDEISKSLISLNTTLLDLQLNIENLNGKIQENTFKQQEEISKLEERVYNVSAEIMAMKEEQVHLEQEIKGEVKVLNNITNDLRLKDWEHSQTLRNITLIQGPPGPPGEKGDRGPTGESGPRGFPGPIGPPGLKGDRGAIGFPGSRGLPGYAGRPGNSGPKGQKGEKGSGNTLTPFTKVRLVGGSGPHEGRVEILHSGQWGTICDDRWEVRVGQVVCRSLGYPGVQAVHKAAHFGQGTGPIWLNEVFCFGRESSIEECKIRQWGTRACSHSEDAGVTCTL
The test is described as follows: Inhibition of full-length MSR1 transfected in HEK293 cells by fluorimetry. Type of test: cell-based.

The molecule `CC(C)=CCC[C@H](C)c1c(O)c(O)c(C)c2nc3ccccc3nc12` showed an IC50 of 71 µM.
The value for `CC(C)=CCC[C@H](C)C1=C(O)C=C(C)C(=O)C1=O` [RIGIDONE] was 5.6 µM.

What is called IC50 is the concentration needed to halve the response being measured. A lower IC50 goes with greater potency in that assay.
